Experiments:
PIPLC = target: T1, PIPLC (Staphylococcus aureus, UniProt P45723); test: PIPLC activity of Staphylococcus aureus strains in microplates with two fluorogenic PIPLC substrates; assay type: cell-based; parameters: key to PIPLC activity: +: strains permitting the production of fluorescence at least twice that of the background noise; −: a signal emitted by the medium that is less than the background noise; conditions: microplate, 24 hours at 37° C.; for number of strains that display PIPLC activity in the presence of the substrate: among the nineteen strains of Staphylococcus aureus ATCC tested; for PIPLC activity: substrate 0.4 g/l (4-methylumbelliferyl) or 0.2 g/l (3-chloro) in medium derived from OAA
T1 construct: endogenous in cells; host or cells: 19 Staphylococcus aureus ATCC strains (e.g. ATCC 9144, ATCC 49775) growing in culture medium
T1 sequence (P45723 27-312): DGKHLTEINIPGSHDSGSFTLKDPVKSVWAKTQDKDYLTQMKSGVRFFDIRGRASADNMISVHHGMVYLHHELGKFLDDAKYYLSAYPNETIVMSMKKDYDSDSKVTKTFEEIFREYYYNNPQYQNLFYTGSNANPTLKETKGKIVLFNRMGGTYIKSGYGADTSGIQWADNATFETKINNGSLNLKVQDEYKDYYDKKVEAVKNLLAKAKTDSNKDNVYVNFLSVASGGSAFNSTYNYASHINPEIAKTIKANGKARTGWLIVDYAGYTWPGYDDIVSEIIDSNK
Protocol: 19 strains of Staphylococcus aureus ATCC are tested for their PIPLC activity in microplates. The tests are performed with two different fluorogenic substrates of PIPLC: 4-methylumbelliferyl-myo-inositol-1-phosphate and 3-chloro-7-hydroxy-4-methylcoumarin myo-inositol-phosphate, added at different concentrations to the constituents of the medium derived from the OAA medium described in example 1.
The strains tested, at an initial concentration of 10^8 (CFU)/ml, are diluted in a tryptone salt broth, so as to obtain a final concentration at 10^3 CFU/ml.
10 μl of this bacterial suspension is added to 200 μl of culture medium. Each strain was incubated for 24 hours at 37° C. with each of the media in the microplate reader marketed by the company TECAN under the name GENios™.
The + signs correspond to the strains permitting the production of fluorescence at least twice that of the background noise, The − signs correspond to a signal emitted by the medium that is less than the background noise.

PC-PLC (lecithinase) = conditions: strains ATCC 33592 and ATCC 700699, 10 CFU per well; 0.4 g/l substrate, pH 7.2, 37° C., 72h, versus uninoculated control medium (FIG. 1)
Protocol: The dynamics of the PC-PLC activity of two strains of Staphylococcus aureus ATCC 33592 and ATCC 700699 was evaluated in microplates in the presence of the medium given below. Reading of the appearance of fluorescence in each of the various wells of the microplate was then carried out in kinetic conditions.
The medium used is of the following composition, pH 7.2:
10 CFU of Staphylococcus aureus ATCC 33592 and ATCC 700699 were inoculated in the wells of the microplate in the presence of the medium described above. The microplate was then incubated at 37° C. in a TECAN reader to evaluate the PC-PLC activity of the two strains of Staphylococcus aureus in the form of the kinetics of hydrolysis of the 4MU-CP substrate, i.e. appearance of fluorescence.
Measurement of the appearance of fluorescence following hydrolysis of the 4MU-CP substrate was carried out over an incubation time of 72h for the two strains of Staphylococcus aureus tested (STA ATCC 33592 and STA ATCC 700699) versus the uninoculated control medium (baseline).

Compound	number of strains that display PIPLC activity in the presence of the substrate (PIPLC)	PIPLC activity (PIPLC; strain ATCC 6538)	PIPLC activity (PIPLC; strain ATCC 9144)	PIPLC activity (PIPLC; strain ATCC 12598)	PIPLC activity (PIPLC; strain ATCC 13150)	PIPLC activity (PIPLC; strain ATCC 29213)	PIPLC activity (PIPLC; strain ATCC 33591)	PIPLC activity (PIPLC; strain ATCC 33592)	PIPLC activity (PIPLC; strain ATCC 33593)	PIPLC activity (PIPLC; strain ATCC 33862)	PIPLC activity (PIPLC; strain ATCC 43300)	PIPLC activity (PIPLC; strain ATCC 43866)	PIPLC activity (PIPLC; strain ATCC 49775)	PIPLC activity (PIPLC; strain ATCC 51153)	PIPLC activity (PIPLC; strain ATCC 51740)	PIPLC activity (PIPLC; strain ATCC 700698)	PIPLC activity (PIPLC; strain ATCC 700699)	PIPLC activity (PIPLC; strain ATCC 700788)	PIPLC activity (PIPLC; strain ATCC 700789)	PIPLC activity (PIPLC; strain CCM 6188)	also measured
Cc1c(Cl)c(=O)oc2cc(OP(=O)([O-])OC3C(O)C(O)C(O)C(O)C3O)ccc12.[Li+] (centres unmarked) [3-Chloro-7-hydroxy-4-methylcoumarin myo-inositol-1-phosphate]	18	+ (strains permitting the production of fluorescence at least twice that of the background noise)	+ (strains permitting the production of fluorescence at least twice that of the background noise)	+ (strains permitting the production of fluorescence at least twice that of the background noise)	+ (strains permitting the production of fluorescence at least twice that of the background noise)	+ (strains permitting the production of fluorescence at least twice that of the background noise)	+ (strains permitting the production of fluorescence at least twice that of the background noise)	+ (strains permitting the production of fluorescence at least twice that of the background noise)	+ (strains permitting the production of fluorescence at least twice that of the background noise)	+ (strains permitting the production of fluorescence at least twice that of the background noise)	+ (strains permitting the production of fluorescence at least twice that of the background noise)	+ (strains permitting the production of fluorescence at least twice that of the background noise)	−	+ (strains permitting the production of fluorescence at least twice that of the background noise)	+ (strains permitting the production of fluorescence at least twice that of the background noise)	+ (strains permitting the production of fluorescence at least twice that of the background noise)	+ (strains permitting the production of fluorescence at least twice that of the background noise)	+ (strains permitting the production of fluorescence at least twice that of the background noise)	+ (strains permitting the production of fluorescence at least twice that of the background noise)	+ (strains permitting the production of fluorescence at least twice that of the background noise)	
Cc1cc(=O)oc2cc(OP(=O)(O)OC3C(O)C(O)C(O)C(O)C3O)ccc12 (centres unmarked) [4-Methylumbelliferyl myo-inositol-1-phosphate]	17	+ (strains permitting the production of fluorescence at least twice that of the background noise)	+ (strains permitting the production of fluorescence at least twice that of the background noise)	+ (strains permitting the production of fluorescence at least twice that of the background noise)	+ (strains permitting the production of fluorescence at least twice that of the background noise)	+ (strains permitting the production of fluorescence at least twice that of the background noise)	+ (strains permitting the production of fluorescence at least twice that of the background noise)	+ (strains permitting the production of fluorescence at least twice that of the background noise)	+ (strains permitting the production of fluorescence at least twice that of the background noise)	+ (strains permitting the production of fluorescence at least twice that of the background noise)	+ (strains permitting the production of fluorescence at least twice that of the background noise)	+ (strains permitting the production of fluorescence at least twice that of the background noise)	−	+ (strains permitting the production of fluorescence at least twice that of the background noise)	+ (strains permitting the production of fluorescence at least twice that of the background noise)	+ (strains permitting the production of fluorescence at least twice that of the background noise)	+ (strains permitting the production of fluorescence at least twice that of the background noise)	+ (strains permitting the production of fluorescence at least twice that of the background noise)	+ (strains permitting the production of fluorescence at least twice that of the background noise)	−	
Cc1cc(=O)oc2cc(OP(=O)([O-])OCC[N+](C)(C)C)ccc12 [4MU-CP, 4-Methylumbelliferyl choline-phosphate]																					detection of Staphylococcus aureus by hydrolysis of the fluorogenic PC-PLC substrate (appearance of fluorescence) (PC-PLC (lecithinase)): permits the detection and discrimination of Staphylococcus aureus
